From patent US9328099B2, “Cyanomethylpyrazole carboxamides as janus kinase inhibitors” (Merck Sharp & Dohme Corp., priority 2011, dated 2016)
Like-named read-outs stand apart in the source and are kept apart here.

Experiments:
JAK1 = JAK1 (Homo sapiens (Human), UniProt P23458); assay: Jak Biochemical HTRF Assay, JAK1; settings: read-out: JAK1 IC50
Text: (§1) Jak Biochemical HTRF Assay Protocol
(§2) Subsequent reagent additions employed an Agilent Bravo.

JAK2 = JAK2 (Homo sapiens (Human), UniProt O60674); assay: Jak Biochemical HTRF Assay, JAK2
Text: as §1, §2

[1] = HTRF biochemical assay, GST-tagged catalytic domain, top concentration tested […]

JAK1, sequence (P23458 875-1153): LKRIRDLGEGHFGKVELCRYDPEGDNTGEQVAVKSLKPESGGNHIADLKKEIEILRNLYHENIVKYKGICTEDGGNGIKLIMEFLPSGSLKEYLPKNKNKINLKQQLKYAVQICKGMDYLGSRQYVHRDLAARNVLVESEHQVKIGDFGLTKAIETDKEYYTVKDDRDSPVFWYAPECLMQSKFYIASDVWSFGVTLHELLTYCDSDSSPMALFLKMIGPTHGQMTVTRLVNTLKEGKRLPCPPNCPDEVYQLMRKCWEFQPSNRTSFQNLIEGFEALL
JAK2, sequence (O60674 849-1124): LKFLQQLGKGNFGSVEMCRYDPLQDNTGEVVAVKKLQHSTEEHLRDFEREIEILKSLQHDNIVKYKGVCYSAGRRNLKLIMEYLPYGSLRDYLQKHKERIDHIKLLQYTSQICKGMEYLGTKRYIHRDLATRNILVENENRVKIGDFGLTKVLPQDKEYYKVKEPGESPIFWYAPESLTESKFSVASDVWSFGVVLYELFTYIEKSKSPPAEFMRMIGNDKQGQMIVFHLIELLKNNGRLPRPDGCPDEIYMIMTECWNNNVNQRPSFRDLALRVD

Row | IC50 (JAK1; [1]) [nM] | IC50 (JAK2; [1]) [nM] | SMILES | IC50 (JAK1) [nM] | IC50 (JAK2) [nM]
1 | 38 | 770 | N#CCC1(n2cc(C(N)=O)c(Nc3ccnc(F)c3)n2)CCC(Nc2ccc(Cl)cc2)CC1 (stereo not drawn) [Example 40-45, Cis or trans 1-{4-[(4-chlorophenyl)amino]-1-(cyanomethyl)cyclohexyl}-3-[(2-fluoropyridin-4-yl)amino]-1H-pyrazole-4-carboxamide] | – | –
2 | 0.05 | 2 | N#CCC1(n2cc(C(N)=O)c(Nc3ccnc(F)c3)n2)CCC(Nc2cccc(F)c2)CC1 (stereo not drawn) [Example 40-64, Cis or trans 1-{1-(cyanomethyl)-4-[(3-fluorophenyl)amino]cyclohexyl}-3-[(2-fluoropyridin-4-yl)amino]-1H-pyrazole-4-carboxamide] | – | –
3 | 2 | 69 | Cc1ccc(NC(=O)N2CC(CC#N)(n3cc(C(N)=O)c(Nc4ccccc4)n3)C2)cc1 [Example 38-6, 1-{3-(cyanomethyl)-1-[(4-methylphenyl)carbamoyl]azetidin-3-yl}-3-(phenylamino)-1H-pyrazole-4-carboxamide] | – | –
4 | 8 | 163 | N#CCC1(n2cc(C(N)=O)c(Nc3ccnc(F)c3)n2)CCN(Cc2cc3ccccn3n2)CC1 [Example 22-34, 1-[4-(cyanomethyl)-1-(pyrazolo[1,5-a]pyridin-2-ylmethyl)piperidin-4-yl]-3-[(2-fluoropyridin-4-yl)amino]-1H-pyrazole-4-carboxamide] | – | –
5 | 8 | 144 | CCc1cccc(NC(=O)N2CC(CC#N)(n3cc(C(N)=O)c(Nc4ccccc4)n3)C2)c1 [Example 38-35, 1-{3-(cyanomethyl)-1-[(3-ethylphenyl)carbamoyl]azetidin-3-yl}-3-(phenylamino)-1H-pyrazole-4-carboxamide] | – | –
6 | 8 | 318 | N#CCC1(n2cc(C(N)=O)c(Nc3ccccc3)n2)CCN(C(=O)OC2CCCCC2)CC1 [Example 30-31, cyclohexyl 4-[4-carbamoyl-3-(phenylamino)-1H-pyrazol-1-yl]-4-(cyanomethyl)piperidine-1-carboxylate] | – | –
7 | 2 | 40 | N#CCC1(n2cc(C(N)=O)c(Nc3ccnc(F)c3)n2)CCN(C(=O)C2(C(F)(F)F)CC2)CC1 [Example 34-56, 1-[4-(cyanomethyl)-1-{[1-(trifluoromethyl)cyclopropyl]carbonyl}piperidin-4-yl]-3-[(2-fluoropyridin-4-yl)amino]-1H-pyrazole-4-carboxamide] | – | –
8 | 0.2 | 14 | N#CCC1(n2cc(C(N)=O)c(Nc3ccnc(F)c3)n2)CCN(Cc2cc3ccccc3[nH]2)CC1 [Example 22-39, 1-[4-(cyanomethyl)-1-(1H-indol-2-ylmethyl)piperidin-4-yl]-3-[(2-fluoropyridin-4-yl)amino]-1H-pyrazole-4-carboxamide] | – | –
9 | 13 | 318 | CN(C)CC(=O)N1CCC(CC#N)(n2cc(C(N)=O)c(Nc3ccccc3)n2)CC1 [Example 34-5, 1-[4-(cyanomethyl)-1-(N,N-dimethylglycyl)piperidin-4-yl]-3-(phenylamino)-1H-pyrazole-4-carboxamide] | – | –
10 | 0.3 | 10 | N#CCC1(n2cc(C(N)=O)c(Nc3ccc(F)cc3)n2)CCC(Nc2ccc(F)cc2)CC1 (stereo not drawn) [Example 40-19, Cis or trans 1-{1-(cyanomethyl)-4-[(4-fluorophenyl)amino]cyclohexyl}-3-[(4-fluorophenyl)amino]-1H-pyrazole-4-carboxamide] | – | –
11 | 2 | 37 | Cn1nccc1CN1CCC(CC#N)(n2cc(C(N)=O)c(Nc3ccnc(F)c3)n2)CC1 [Example 22-29, 1-{4-(cyanomethyl)-1-[(1-methyl-1H-pyrazol-5-yl)methyl]piperidin-4-yl}-3-[(2-fluoropyridin-4-yl)amino]-1H-pyrazole-4-carboxamide] | – | –
12 | 26 | 265 | C[C@@H](NC(=O)N1CC(CC#N)(n2cc(C(N)=O)c(Nc3ccccc3)n2)C1)c1ccccc1 [Example 38-33, 1-[3-(cyanomethyl)-1-{[(1R)-1-phenylethyl]carbamoyl}azetidin-3-yl]-3-(phenylamino)-1H-pyrazole-4-carboxamide] | – | –
13 | 0.3 | 18 | N#CCC1(n2cc(C(N)=O)c(Nc3ccc(F)cc3)n2)CCC(Nc2cccc(F)c2)CC1 (stereo not drawn) [Example 40-16, Cis or trans 1-{1-(cyanomethyl)-4-[(3-fluorophenyl)amino]cyclohexyl}-3-[(4-fluorophenyl)amino]-1H-pyrazole-4-carboxamide] | – | –
14 | 0.4 | 3 | CS(=O)(=O)N1CCC(CC#N)(n2cc(C(N)=O)c(Nc3ccccc3)n2)CC1 [Example 37-2, 1-[4-(cyanomethyl)-1-(methylsulfonyl)piperidin-4-yl]-3-(phenylamino)-1H-pyrazole-4-carboxamide] | – | –
15 | 0.07 | 5 | N#CCC1(n2cc(C(N)=O)c(Nc3ccnc(F)c3)n2)CCN(C(=O)OCC(F)F)CC1 [Example 30-27, 2,2-difluoroethyl 4-(4-carbamoyl-3-(2-fluoropyridin-4-ylamino)-1H-pyrazol-1-yl)-4-(cyanomethyl)piperidine-1-carboxylate] | – | –
16 | 86 | 1000 | N#CCC1(n2cc(C(N)=O)c(Nc3ccnc(F)c3)n2)CCC(NCc2ccncc2)CC1 (stereo not drawn) [Example 41-13, Cis or trans 1-{1-(cyanomethyl)-4-[(pyridin-4-ylmethyl)amino]cyclohexyl}-3-[(2-fluoropyridin-4-yl)amino]-1H-pyrazole-4-carboxamide] | – | –
17 | 0.1 | 4 | N#CCC1(n2cc(C(N)=O)c(Nc3ccnc(F)c3)n2)CCN(Cc2ccc(Cl)cc2)CC1 [Example 22-71, 1-[1-(4-chlorobenzyl)-4-(cyanomethyl)piperidin-4-yl]-3-[(2-fluoropyridin-4-yl)amino]-1H-pyrazole-4-carboxamide] | – | –
18 | 20 | 735 | N#CCC1(n2cc(C(N)=O)c(Nc3ccnc(F)c3)n2)CCC(NCc2ccccc2)CC1 (stereo not drawn) [Example 41-28, Cis or trans 1-[4-(benzylamino)-1-(cyanomethyl)cyclohexyl]-3-[(2-fluoropyridin-4-yl)amino]-1H-pyrazole-4-carboxamide] | – | –
19 | 0.3 | 9 | N#CCC1(n2cc(C(N)=O)c(Nc3ccnc(F)c3)n2)CCC(NCc2cccc(F)c2)CC1 (stereo not drawn) [Example 41-19, Cis or trans 1-{1-(cyanomethyl)-4-[(3-fluorobenzyl)amino]cyclohexyl}-3-[(2-fluoropyridin-4-yl)amino]-1H-pyrazole-4-carboxamide] | – | –

The remaining lines, values behind:

Row | SMILES | IC50 (JAK1; [1]) [nM] | IC50 (JAK2; [1]) [nM] | IC50 (JAK1) [nM] | IC50 (JAK2) [nM]
20 | CCS(=O)(=O)N1CC(CC#N)(n2cc(C(N)=O)c(Nc3ccc(C(=O)N4CCS(=O)(=O)CC4)cc3)n2)C1 [Example 2-13, 1-[3-(cyanomethyl)-1-(ethylsulfonyl)azetidin-3-yl]-3-({4-[(1,1-dioxidothiomorpholin-4-yl)carbonyl]phenyl}amino)-1H-pyrazole-4-carboxamide] | 27 | 38 | – | –
21 | C[C@H]1C[C@](CC#N)(n2cc(C(N)=O)c(Nc3ccccc3)n2)CCN1C(=O)OC(C)(C)C (racemic) [Example 2-10] | 2 | 21 | – | –
22 | COc1ccc(-c2cccc(Nc3nn(C4(CC#N)CCN(C(=O)OC(C)(C)C)CC4)cc3C(N)=O)c2)cc1 [Example 15-4, tert-butyl 4-{4-carbamoyl-3-[(4′-methoxybiphenyl-3-yl)amino]-1H-pyrazol-1-yl}-4-(cyanomethyl)piperidine-1-carboxylate] | 41 | 958 | – | –
23 | CC(C)(C)OC(=O)N1CCC(CC#N)(n2cc(C(N)=O)c(Nc3ccnc(CO)c3)n2)CC1 [Example 9-18, tert-butyl 4-(4-carbamoyl-3-{[2-(hydroxymethyl)pyridin-4-yl]amino}-1H-pyrazol-1-yl)-4-(cyanomethyl)piperidine-1-carboxylate] | 6 | 101 | – | –
24 | CC(C)(C)OC(=O)N1CCC(CC#N)(n2cc(C(N)=O)c(Nc3ccccn3)n2)CC1 [Example 13-3, tert-butyl 4-(4-carbamoyl-3-(pyridin-2-ylamino)-1H-pyrazol-1-yl)-4-(cyanomethyl)piperidine-1-carboxylate] | 8 | 466 | – | –
25 | COc1cc(N2CCC(CC#N)(n3cc(C(N)=O)c(Nc4ccc(F)cc4)n3)CC2)ccn1 [Example 3-6, 1-[4-(cyanomethyl)-1-(2-methoxypyridin-4-yl)piperidin-4-yl]-3-[(4-fluorophenyl)amino]-1H-pyrazole-4-carboxamide] | 0.2 | 5 | – | –
26 | N#CCC1(n2cc(C(N)=O)c(Nc3ccc(S(=O)(=O)C(F)F)cc3)n2)CCC(Nc2cccc(O)c2)CC1 (stereo not drawn) [Example 40-44, Cis or trans 1-{1-(cyanomethyl)-4-[(3-hydroxyphenyl)amino]cyclohexyl}-3-({4-[(difluoromethyl)sulfonyl]phenyl}amino)-1H-pyrazole-4-carboxamide] | – | – | 0.1 | 0.8
27 | N#CCC1(n2cc(C(N)=O)c(Nc3cncc(F)c3)n2)CCN(C(=O)OCC(F)(F)F)CC1 [Example 10-8, 2,2,2-trifluoroethyl 4-(4-carbamoyl-3-(5-fluoropyridin-3-ylamino)-1H-pyrazol-1-yl)-4-(cyanomethyl)piperidine-1-carboxylate] | 0.7 | 21 | – | –
28 | N#CCC1(n2cc(C(N)=O)c(Nc3ccc(F)cc3)n2)CCN(c2cccc(C3CC3)c2)CC1 [Example 3-17, 1-[4-(cyanomethyl)-1-(3-cyclopropylphenyl)piperidin-4-yl]-3-[(4-fluorophenyl)amino]-1H-pyrazole-4-carboxamide] | 32 | 780 | – | –
29 | CC(C)OC(=O)c1ccc(Nc2nn(C3(CC#N)CCN(C(=O)OC(C)(C)C)CC3)cc2C(N)=O)cc1 [Example 4-2, tert-butyl 4-[4-carbamoyl-3-({4-[(1-methylethoxy)carbonyl]phenyl}amino)-1H-pyrazol-1-yl]-4-(cyanomethyl)piperidine-1-carboxylate] | 2 | 20 | – | –
